From US20110124888A1, “STYRYLBENZOFURAN DERIVATIVES AS INHIBITORS FOR BETA-AMYLOID FIBRIL FORMATION AND PREPARATION METHOD THEREOF” (Korea Institute of Science and Technology, priority 2008, published 2011)

Tests used:
[1] = test system: congo red-positive beta-amyloid plagues; assay: Immunohistochemistry: congo red-positive beta-amyloid plaque count in hippocampus and cortex of transgenic mice; assay type: in vivo; conditions: vs Tg group
Protocol: The transgenic mice were screened and drug was administered thereto as described in 1) and 2) of Experimental Example 4. The brain was separated from the transgenic mouse and fixed in 10% neutral formalin solution. A region of the brain including the hippocampus and the cortex were subjected to removal, washing, dehydration and paraffin infiltration to obtain paraffin block including the brain tissue. The paraffin block was subjected to thin section in thickness of 8 μm to obtain the sections of all regions of hippocampus. Among them, 10 sections were elected at regular intervals. They were deparaffinized, hydrated, immersed in Mayer's hematoxylin for 1 min and rinsed with tap water. The rinsed tissue was reacted in an alkaline sodium chloride solution for 20 min, after then was reacted in an alkaline congo red solution for 20 min. The resulting tissue was washed with 100% ethyl alcohol, cleared with xylene and mounted using a synthetic mounting medium. In the hippocampus and cortex regions of the tissue preparations strained with congo red, congo red-positive beta-amyloid plagues were counted.

[2] = test system: transgenic double tg mice (APPswe, PSEN1 dE9); assay: In vivo fear conditioning test in transgenic mice; conditions: 5 to 12 months of age, based on the freezing (%) of Tg vehicle group
Protocol: The tails of 3-week old mice born from Male B6C3-Tg (APPswe, PSEN1 dE9, Jackson Laboratory Co., Maine, A) and female B6C3F1 (central Lab. Animal Inc., Korea) were cut in lengths of about 0.5 cm (tail biopsy). The genomic DNAs were extracted from the tail samples and subjected to a genotype analysis to screen transgenic double tg mice.
From 5 months to 12 months after the birth, the mice were administered orally with the compound of Example 9, in an amount of 30 mg/kg or 100 mg/kg every day. As a comparative compound, tramiprosate (Aisen, P. S. et. al., Curr. Alzheimer Res. 2007, 4, 473) was used, which binds to beta-amyloid protein to inhibit the deposition and cytotoxicity to the protein. The compounds were administrated.
3) Fear Conditioning Test
At the First day of training, the mice were placed in a conditioning box and adjusted for 2 min. The fear conditioning was performed with a conditional stimulus (CS) of 75 dB for 20 sec, together with an electrical stimulus (unconditional stimulus (US)) of 0.5 mA for final 2 sec in the conditional stimulus period. After 1 min, the animals were transferred to a cage. After 24 hrs, the retention test was performed. The animals were placed in the same conditioning box as used above and observed for 5 min. The freezing response was measured without CS and US. The freezing response is defined in the state of the animals keeping still except for breathing.

[3] = molecular target: beta-amyloid 42 (Homo sapiens, UniProt P05067); assay: Biochemical test: content of beta-amyloid 42 in hippocampus tissue of transgenic mice; assay type: in vivo; conditions: hippocampus tissue, based on the content of beta amyloid 42 in the Tg group
Sequence of beta-amyloid 42 (P05067 672-713 limits assumed): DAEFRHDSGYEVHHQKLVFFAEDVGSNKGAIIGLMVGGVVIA

[4] = molecular target: T1, beta-amyloid 42 (Aβ42) (Homo sapiens, UniProt P05067); assay: Inhibitory effect on the formation of beta-amyloid fibrils in vitro (ThT fluorescence assay); assay type: biochemical; conditions: for IC50: In vitro ThT analysis (Aβ42: 25 μM), experiment of Table 1; for % inhibition against the beta-amyloid 42 formation compared with curcumin: Tables 1 to 6, relative to curcumin
T1 construct: Beta-amyloid 42 (Aβ42) was dissolved in dimethylsulfoxide (DMSO)
T1 sequence (P05067 672-713 limits assumed): as above
Protocol: In order to investigate the inhibitory effect on the formation of beta-amyloid fibrils, the inventive compounds were examined as follows:
Beta-amyloid 42 (Aβ42) was dissolved in dimethylsulfoxide (DMSO) to form a […] Aβ42 stock solution. In addition, ThT (thioflavin T) was dissolved in distilled water to a concentration of 1 mM and subsequently diluted with 50 mM glycin buffer (pH 8.5) to yield a 5 μM ThT stock solution.
45 μL of PBS (phosphate buffer saline, pH 7.4) was added to each of a 96 well fluorescence microplate (white, F-bottom). 5 μL of the 250 μM Aβ42 stock solution was added to each well. The final concentration of each compound obtained in Examples was in a range of 10 to 0.001 μM by adding 2 μL of a solution, which is prepared by dissolving the subject compounds obtained in Examples in DMSO, to each well. At this time, the final concentration of Aβ42 in each well was 25 μM. The plate was then incubated at room temperature for 1 hr, and 150 μL of the 5 μM ThT stock solution was added to each well.
The fluorescence intensity of each well was determined with the multi label fluorescence counter (LS-55 Luminescence spectrometer, Perkin Elmer) at an excitation wavelength of 450 nm (excitation slit width: 10 nm) and an emission wavelength of 482 nm (emission slit width: 10 nm), while adjusting counting time to 1 second. The control group was prepared by adding PBS solution, Aβ42 and DMSO, without adding the inventive compound. % Inhibition on the formation of beta-amyloid fibrils was calculated in accordance with the following equation and IC5O was calculated by using GraphPad Prism version 4.03 Program.
% Inhibition=[1−(C−D)/(A−B)]×100 Equation 1%
A (control group): fluorescence intensity in a group treated with PBS solution, Aβ42, and DMSO
B (blank): fluorescence intensity in a group treated with PBS solution and DMSO
C (experimental group): fluorescence intensity in a group treated with PBS solution, Aβ42, DMSO, and the inventive compound
D (compensation value to the experimental group): fluorescence intensity in a group treated with PBS solution, DMSO, and the inventive compound

Compound: NCCCS(=O)(=O)O [Tramiprosate, tramiprosate, reference compound]
- Reduction rate (%) of beta-amyloid plaques, cortex ([1]; 30 mg/kg): 32%
- Reduction rate (%) of beta-amyloid plaques, hippocampus ([1]; 30 mg/kg): 7%
- Total reduction rate (%) of beta-amyloid plaques ([1]; 30 mg/kg): 29%
- Reduction rate (%) of beta-amyloid plaques, cortex ([1]; 100 mg/kg): 12%
- Reduction rate (%) of beta-amyloid plaques, hippocampus ([1]; 100 mg/kg): 7%
- Total reduction rate (%) of beta-amyloid plaques ([1]; 100 mg/kg): 11%
- Increase rate (fold) of freezing ([2]; 30 mg/kg orally every day): 2.3 fold
- Increase rate (fold) of freezing ([2]; 100 mg/kg orally every day): 1.8 fold
- Reduction rate (%) of beta amyloid 42 content ([3]; 30 mg/kg): 8%
- Reduction rate (%) of beta amyloid 42 content ([3]; 100 mg/kg): 16%

Compound: COc1ccc2oc(C=Cc3ccc(N(C)C)c(OC)c3)cc2c1 [Compound 22, 5-methoxy-2-(3-methoxy-4-dimethylaminostyryl)benzofuran]
- IC50 [4]: 156 nM
- % inhibition against the beta-amyloid 42 formation compared with curcumin [4]: superior % inhibition
- melting point: 226.5 to 227.5 °C

Compound: CN(C)c1ccc(C=Cc2cc3cc(O)ccc3o2)cc1 [Compound 3, 5-Hydroxy-2-(4-dimethylaminostyryl)benzofuran]
- IC50 [4]: 163 nM
- % inhibition against the beta-amyloid 42 formation compared with curcumin [4]: superior % inhibition
- melting point: 177 to 178 °C

Compound: Cc1ccc2oc(C=Cc3ccc(N(C)C)cc3)cc2c1 [Compound 4, 5-methyl-2-(4-dimethylaminostyryl)benzofuran]
- IC50 [4]: 128 nM
- % inhibition against the beta-amyloid 42 formation compared with curcumin [4]: superior % inhibition
- melting point: 188 to 189 °C
